Article PMC2120320 (The Journal of Cell Biology, 1994)

Key:
[1] = test system: dynein-driven microtubule sliding in spoke-deficient axonemes; assay: Microtubule sliding velocity in spoke-deficient axonemes; type: biochemical, Chlamydomonas reinhardtii; conditions: for effect on velocity of microtubule sliding: spoke-deficient mutants (pf14, pf17)
[2] = biological target: myosin light chain kinase; conditions: ref Hidaka et al., 1984; cited from earlier work
[3] = biological target: cyclic nucleotide-dependent kinases; conditions: inhibition of cyclic nucleotide-dependent kinases; ref Hidaka et al., 1984; cited from earlier work
protein kinase C = conditions: ref Hidaka et al., 1984; cited from earlier work
[4] = test system: dynein-driven microtubule sliding in wild-type 137c axonemes; assay: Microtubule sliding velocity in wild-type; type: biochemical, Chlamydomonas reinhardtii
[5] = test system: dynein-driven microtubule sliding in pf14 axonemes; assay: Microtubule sliding velocity in isolated pf14 axonemes; type: biochemical, Chlamydomonas reinhardtii; conditions: pf14, 10 μM cAMP alone (Fig. 4), mean from 20 measurements
[6] = biological target: PKI-sensitive kinase activity; conditions: demembranated ram sperm, treatment with cAMP; ref San Agustin and Witman, 1994; cited from earlier work
[7] = test system: catalytic subunit of cAPK; conditions: demembranated rat sperm; ref Horowitz et al., 1984; cited from earlier work
[8] = test system: dynein-driven microtubule sliding in pf18 axonemes; assay: Microtubule sliding velocity in pf18 axonemes; type: biochemical, Chlamydomonas reinhardtii; conditions: pf18, 100 nM PKI; Habermacher, G., unpublished results
inner arm dyneins = type: biochemical, Chlamydomonas reinhardtii
[9] = test system: dynein-driven microtubule sliding in pf17 axonemes; assay: Microtubule sliding velocity in isolated pf17 axonemes; type: biochemical, Chlamydomonas reinhardtii
[10] = biological target: cAMP-dependent protein kinase (cAPK); conditions: ref Glass et al., cited from earlier work
pf17 axonemes = assay: In vitro reactivation of beating of pf17 axonemes; type: biochemical, Chlamydomonas reinhardtii; conditions: pf17 axonemes with PKI, preliminary experiments
[11] = test system: dynein-driven microtubule sliding in pf14pf28 axonemes; assay: Microtubule sliding velocity in pf14pf28 axonemes; type: biochemical, Chlamydomonas reinhardtii

Molecule: CC1CNCCN1S(=O)(=O)c1cccc2cnccc12 (centres unmarked) [H-7]
- effect on sliding velocity ([1]; H-7, spoke-deficient axonemes, data not shown): increases
- effect on velocity of microtubule sliding [1]: increased to wild-type level

Molecule: Cl.N=C(N)NCCNS(=O)(=O)c1cccc2cnccc12 [HA-1004, N-(2-guanidinoethyl)-5-isoquinolinesulfonamide hydrochloride]
- Ki [2]: 150 µM
- dose dependence of sliding velocity stimulation ([1]; spoke-deficient axonemes): dose dependent
- effect on velocity of microtubule sliding [1]: increased to wild-type level
- Ki [3]: 1 to 3 µM
- Ki (protein kinase C): 40 µM
- effect on microtubule sliding velocity ([4]; wild-type, 15 μM HA-1004, not shown): had no effect

Molecule: Nc1ncnc2c1ncn2[C@@H]1O[C@@H]2COP(=O)(O)O[C@H]2[C@H]1O [cAMP]
- effect on microtubule sliding velocity [5]: had no effect
- effect on RII-induced increase in sliding ([1]; 10 μM cAMP added to spokeless axonemes reconstituted with RII): reversed the effect of RII
- PKI-sensitive kinase activity remaining bound after cAMP [6]: ≤ 50%
- release of catalytic activity [7]: releases most of the catalytic activity

Molecule: RII: regulatory subunit of bovine cardiac type II cAPK (Promega)
- effect of RII on microtubule sliding ([1]; spoke-deficient axonemes, type-II regulatory subunit of cAPK): increased microtubule sliding to wild-type velocity

Molecule: Thr-Tyr-Ala-Asp-Phe-Ile-Ala- Ser-Gly-Arg-Thr-Gly-A_rg-Arg-Aan-Ala-Ile-NH2 [PKI, PKI(6-22)amide]
- effect on velocity of microtubule sliding [8]: significantly increased to wild-type levels
- sliding velocity with control dynein on extracted PKI-treated axonemes (PKIAxos) (inner arm dyneins; pf14pf28, 100 nM PKI (Fig. 6), two experiments pooled): only slow
- sliding velocity of PKI-treated axonemes before extraction vs control axonemes (inner arm dyneins; pf14pf28, 100 nM PKI, Pre-Extr (Fig. 6), P < 0.05): significantly greater
- dose dependence of sliding velocity stimulation ([1]; spoke-deficient axonemes): dose-dependent
- effect on velocity of microtubule sliding [1]: increased to wild-type level
- efficacy of PKI versus NAcPKI ([9]; pf17, 100 nM (Fig. 2a)): no detectable difference
- effect on microtubule sliding velocity ([9]; pf17, 100 nM peptide (Fig. 2a), PKI and NAcPKI P < 0.01 vs control or triAlaPKI): significantly increased
- Ki ([10]; inhibition of cAPK, 1989): 0.0016 to 0.0025 µM
- specificity of cAPK inhibition [10]; 1986: high degree of specificity
- reactivation of in vitro beating (pf17 axonemes): unable to reactivate
- effect on microtubule sliding velocity ([11]; pf14pf28, 100 nM PKI (Fig. 5), P < 0.001): significantly increased
- effect on microtubule sliding vs pf28 control velocity ([11]; pf14pf28, PKI): increased microtubule sliding to control (pf28) velocity
- effect on microtubule sliding velocity ([4]; wild-type 137c, 0-200 nM PKI (Fig. 2b)): did not affect
